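Assay format: 96-well plates, 48-hour exposure. Here, GI50 denotes the concentration required for 50% inhibition of growth.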 Activity calls are given as the source filed them. No stated cut-off is given here; in the data, active = GI50 up to about 1.1 µM and inactive = higher.
Key:
Assay in all cases: inhibition of tumour cell growth, NCI panel, 48 h
SNB-19 = system: SNB-19
SK-MEL-5 = system: SK-MEL-5
SF-295 = system: SF-295
UACC-62 = system: UACC-62
LOX IMVI = system: LOX IMVI
SK-OV-3 = system: SK-OV-3
IGROV-1 = system: IGROV-1
OVCAR-3 = system: OVCAR-3
BT-549 = system: BT-549
Hs-578T = system: Hs-578T
MOLT-4 = system: MOLT-4
SN12C = system: SN12C
ACHN = system: ACHN
PC-3 = system: PC-3
NCI-H226 = system: NCI-H226
NCI-H460 = system: NCI-H460
HCC 2998 = system: HCC 2998
SF-268 = system: SF-268
HL-60 = system: HL-60
HOP-92 = system: HOP-92

Measured: GI50

C[N+]1([O-])[C@H]2CC(OC(=O)[C@H](CO)c3ccccc3)C[C@H]1[C@H]1O[C@H]12 (stereo not given in full)
inactive: SNB-19 > 100 µM | SK-MEL-5 > 100 µM | SF-295 > 100 µM | UACC-62 > 100 µM | LOX IMVI > 100 µM | SK-OV-3 > 100 µM | IGROV-1 > 100 µM | OVCAR-3 > 100 µM | BT-549 > 100 µM | Hs-578T > 100 µM | MOLT-4 > 100 µM | SN12C > 100 µM | ACHN > 100 µM | PC-3 > 100 µM | NCI-H226 > 100 µM

O=C1c2ccccc2C(=O)c2c1ccc(C(=O)O)c2-c1ccc2ccccc2c1
inactive: SNB-19 34.7 µM | SK-MEL-5 16.9 µM | SF-295 28.5 µM | UACC-62 18.2 µM | LOX IMVI 18.9 µM | SK-OV-3 31 µM | IGROV-1 13.7 µM | NCI-H460 30.1 µM | OVCAR-3 18.2 µM | BT-549 26.4 µM | Hs-578T 23.9 µM | HCC 2998 25.9 µM | SF-268 28 µM | MOLT-4 19.1 µM | SN12C 29.1 µM | ACHN 30.8 µM | PC-3 24.5 µM | NCI-H226 21.8 µM | HL-60 27.9 µM

O=C(O)CCCN1CCCCC1
inactive: SNB-19 > 100 µM | SK-MEL-5 > 100 µM | SF-295 > 100 µM | UACC-62 > 100 µM | LOX IMVI > 100 µM | IGROV-1 > 100 µM | NCI-H460 > 100 µM | OVCAR-3 > 100 µM | HOP-92 > 100 µM | BT-549 > 100 µM | Hs-578T > 100 µM | HCC 2998 > 100 µM | SF-268 > 100 µM | MOLT-4 > 100 µM | SN12C > 100 µM | ACHN > 100 µM | PC-3 > 100 µM | NCI-H226 > 100 µM

Cc1c(Cl)c(S(N)(=O)=O)cc2c1N=CNS2(=O)=O
inactive: SNB-19 > 100 µM | SK-MEL-5 > 100 µM | SF-295 > 100 µM | UACC-62 > 100 µM | LOX IMVI > 100 µM | SK-OV-3 > 100 µM | IGROV-1 > 100 µM | NCI-H460 > 100 µM | OVCAR-3 > 100 µM | HOP-92 > 100 µM | BT-549 > 100 µM | Hs-578T > 100 µM | HCC 2998 > 100 µM | SF-268 > 100 µM | MOLT-4 > 100 µM | SN12C > 100 µM | ACHN > 100 µM | PC-3 > 100 µM | NCI-H226 > 100 µM

NC(=O)/N=C(\N)NC(=O)c1ccccc1
inactive: SNB-19 > 100 µM | SK-MEL-5 > 100 µM | SF-295 > 100 µM | UACC-62 > 100 µM | LOX IMVI > 100 µM | IGROV-1 > 100 µM | NCI-H460 > 100 µM | OVCAR-3 > 100 µM | HOP-92 > 100 µM | BT-549 > 100 µM | HCC 2998 > 100 µM | MOLT-4 > 100 µM | SN12C > 100 µM | ACHN > 100 µM | PC-3 > 100 µM | NCI-H226 > 100 µM | HL-60 > 100 µM

CC(C)c1ccc2c(c1)[C@@]1(C)CC[C@H](C)C(C)(C)C1CC2 (stereo not given in full)
inactive: SNB-19 19.7 µM | SK-MEL-5 20.3 µM | SF-295 20.6 µM | UACC-62 16.2 µM | LOX IMVI 17.6 µM | SK-OV-3 18.5 µM | IGROV-1 51.8 µM | NCI-H460 18.6 µM | OVCAR-3 25.4 µM | HOP-92 16.9 µM | BT-549 20.6 µM | Hs-578T 24 µM | HCC 2998 20.9 µM | SF-268 19.1 µM | MOLT-4 37 µM | SN12C 17.7 µM | ACHN 18.6 µM | NCI-H226 17.3 µM | HL-60 34.4 µM

Cc1ccc(OCC2=NN3C(=O)/C(=C\c4ccc([N+](=O)[O-])o4)SC3N2)cc1 (stereo not given)
inactive: SNB-19 17.8 µM | SK-MEL-5 8.99 µM | SF-295 14.8 µM | LOX IMVI 3.66 µM | SK-OV-3 16.3 µM | IGROV-1 10.5 µM | NCI-H460 18.7 µM | OVCAR-3 1.95 µM | HOP-92 2.8 µM | BT-549 12.5 µM | Hs-578T 21.7 µM | SF-268 4.07 µM | MOLT-4 2.33 µM | SN12C 16.9 µM | ACHN 1.71 µM | PC-3 5.5 µM | NCI-H226 15.4 µM | HL-60 1.59 µM
